Measurements published in publication PMC3792051, “Polyenylpyrrole Derivatives Inhibit NLRP3 Inflammasome Activation and Inflammatory Mediator Expression by Reducing Reactive Oxygen Species Production and Mitogen-Activated Protein Kinase Activation” (PLoS ONE, 2013).

Experiments:
RAW 264.7 cells = experiment: AlamarBlue assay for cell viability (cytotoxicity); details: read-out: IC50 (cytotoxicity), RAW 264.7 macrophages, 24 h treatment, 6.25-100 µM tested
[1] = system: LPS-activated RAW 264.7 macrophages; experiment: NF-κB signaling (IKK-α/IκB-α Western blot, p65 nuclear translocation ELISA); format: cell-based, murine; details: RAW 264.7, 10-40 µM 30 min, LPS 20 min
Experimental: (§1) Cells were washed twice with ice-cold phosphate-buffered saline (PBS) and lysed on ice for 5 min with lysis buffer (20 mM Tris-HCl, pH 7.5, 150 mM NaCl, 1 mM Na 2EDTA, 1 mM EGTA, 1% Triton X-100, 2.5 mM sodium pyrophosphate, 1 mM beta-glycerophosphate, 1 mM Na 3VO4, 1 µg/ml of leupeptin, 1 mM PMSF, protease inhibitor cocktail). The lysate was then centrifuged at 12,000 x g at 4 °C for 10 min and the pellet discarded. Proteins in the supernatant were separated by SDS-PAGE and electrotransferred to a PVDF membrane (EMD Millipore Corporation), which was then blocked by incubation for 1 h at room temperature in blocking buffer [(5% nonfat milk in PBS containing 0.1% Tween 20 (PBST)], then incubated for 2 h at room temperature with the primary antibody diluted in blocking buffer. After three washes in PBST, the membrane was incubated for 1 h at room temperature with an appropriate HRP-conjugated secondary antibody diluted in blocking buffer and developed using an enhanced chemiluminescence Western blot detection system (EMD Millipore Corporation).
(§2) Nuclear proteins were extracted from RAW 264.7 and J774A.1 cells using a Nuclear Extract Kit (Active Motif) according to the manufacturer’s instructions and nuclear NF-κB p65 activation quantified using an ELISA-based TransAM NF-κB kit (Active Motif, Tokyo, Japan) according to the manufacturer’s protocol by reading the absorbance at 450 nm with a microplate absorbance reader (Bio-Rad Laboratories, Inc) and a reference wavelength of 655 nm.
(§3) Following LPS stimulation, IκB in the complex is phosphorylated by IκB kinase (IKK), ubiquitinated, and rapidly degraded in proteasomes, thus releasing NF-κB [30].
(§4) Figure 6 Effect of compound 1h on NF-κB activation in LPS-activated macrophages. (A) RAW 264.7 macrophages or (B) J774A.1 macrophages (both 5 × 10^5/ml; 1 ml) were incubated for 30 min with 10-40 µM compound 1h or DMSO, then LPS (1 µg/ml) was added and incubation continued for 20 min, then levels of phosphorylated and total IKK-α and IκB-α were measured by Western blotting. (C) RAW 264.7 macrophages or (D) J774A.1 macrophages (both 5 × 10^5/ml; 1 ml) were treated as in A and B, then nuclear translocation of NF-κB was analyzed by ELISA. (E) RAW-Blue^TM cells (5 × 10^5/ml; 1 ml) were incubated for 30 min with 2.5-40 µM compound 1h or DMSO, then LPS (1 µg/ml) was added and incubation continued for 24 h, then SEAP activity was measured by the QUANTI-Blue^TM assay and expressed as a percentage of that in the absence of compound 1h. In (A) and (B), the results are representative of those obtained in three different experiments. In (C-E), the data are expressed as the mean ± SD for three separate experiments. *, **, and *** indicate a significant difference at the level of p < 0.05, p < 0.01, and p < 0.001, respectively, compared to the DMSO/LPS group.

[2] = system: LPS-activated J774A.1 macrophages; experiment: as above; format: cell-based, murine; details: J774A.1, 10-40 µM 30 min, LPS 20 min
Experimental: as §1, §2, §3, §4

[3] = system: NLRP3 inflammasome in LPS+ATP-activated J774A.1 macrophages; experiment: NLRP3 inflammasome activation (IL-1β ELISA, caspase-1 p10 Western blot); format: cell-based, mouse; details: then ATP 5 mM 30 min
Experimental: The effects of the test samples on IL-1β, TNF-α, and IL-6 production were measured by ELISA according to the manufacturer’s instructions. In brief, 50 µl of biotinylated antibody reagent and 50 µl of supernatant were added to a stripwell plate precoated with anti-mouse IL-1β, TNF-α, or IL-6 antibodies, which was then incubated at room temperature for 2 h. After washing the plate three times with washing buffer, 100 µl of diluted streptavidin-HRP concentrate was added to each well and the plate incubated at room temperature for 30 min. The washing process was repeated, then 100 µl of a premixed tetramethylbenzidine substrate solution was added to each well and the plate incubated at room temperature in the dark for 30 min. After addition of 100 µl of stop solution to each well, the absorbance at 450 nm of each well was measured on a microplate reader.
as §1
ATP is known to activate the NLRP3 inflammasome in LPS-primed macrophages, leading to caspase-1 activation and IL-1β secretion. To examine whether compound 1h could affect NLRP3 inflammasome activation, the mouse macrophage cell line J774A.1 was used (RAW 264.7 macrophages are not suitable for studying the NLRP3 inflammasome). […]
Figure 4 Effect of compound 1h on NLRP3 inflammasome activation in LPS+ATP-activated J774A.1 macrophages. (A) J774A.1 macrophages (1 × 10^6/ml; 1 ml) or (B) peritoneal macrophages (1 × 10^5/ml; 1 ml) were incubated with 10-40 µM compound 1h or DMSO for 30 min, then LPS (1 µg/ml) was added and incubation continued for 5.5 h, then the cells were stimulated with ATP (5 mM) for an additional 30 min, then IL-1β in the culture medium was measured by ELISA (A, upper panel; B) and levels of active caspase-1 (p10) (A, lower panel) measured by Western blotting. In (C) and (D), J774A.1 macrophages (1 × 10^6/ml; 1ml) were incubated with LPS (1 µg/ml) for 5.5 h, then with 10-40 µM compound 1h or DMSO for 30 min in the continued presence of LPS, followed by stimulation with ATP (5 mM) for an additional 30 min, then IL-1β levels (C, upper panel) and IL-6 levels (D) in the culture medium were measured by ELISA and levels of active caspase-1 (p10) were measured by Western blotting (C, lower panel). […] In (E), J774A.1 macrophages (1 × 10^6/ml; 1 ml) were incubated for 30 min with DMSO or 1-40 µM compound 1h, then LPS (1 µg/ml) was added and incubation continued for 6 h, then expression of NLRP3 and proIL-1β was measured by Western blotting. […]

[4] = J774A.1, LPS 5.5 h first, then compound 10-40 µM 30 min
[5] = J774A.1, compound 10-40 µM 30 min before LPS 5.5 h

O=c1cc(O)cc(/C=C/C=C/C=C/C=C/c2[nH]ccc2Cl)o1 [compound 1h]
IC50 (RAW 264.7 cells): > 100 µM | IκB-α degradation [1]: had a inhibitory effect on IκB-α degradation | NF-κB nuclear translocation [1]: inhibited NF-κB nuclear translocation | Phosphorylation of IKK-α and IκB-α [1]: inhibited phosphorylation of IKK-α and IκB-α in a dose-dependent manner | IκB-α degradation [2]: had a inhibitory effect on IκB-α degradation | NF-κB nuclear translocation [2]: inhibited NF-κB nuclear translocation | Phosphorylation of IKK-α and IκB-α [2]: inhibited phosphorylation of IKK-α and IκB-α in a dose-dependent manner | Caspase-1 activation (p10) [3, 4]: not caspase-1 activation | IL-1β secretion [3, 4]: inhibited the LPS-induced increase in IL-1β secretion | IL-6 secretion [3, 4]: had no significant effect on IL-6 secretion | Generation of active caspase-1 (p10) [3, 5]: significantly inhibited | IL-1β secretion [3, 5]: significantly inhibited IL-1β secretion
